In PMC5130624 (International journal for parasitology, 2016):
Read-outs that look alike come from different tables or passages of the source.

Legend:
hERG = settings: cited from earlier work
[1] = test system: S. neurona strain F9F merozoites; test: S. neurona parasite growth assay in bovine turbinate cells; assay type: cell-based, Sarcocystis neurona
[2] = test system: SnCDPK1 in S. neurona cell lysate; test: Cell lysate thermal shift assay; assay type: binding, Sarcocystis neurona; settings: BKI 2 µM, 0.5% DMSO, Tm (compound)-Tm (DMSO)
recombinant SnCDPK1 [3] = test: SnCDPK1 kinase activity assay; assay type: biochemical, Sarcocystis neurona; settings: read-out: SnCDPK1 enzyme IC50; inhibition of phosphorylation activity
[4] = Oral pharmacokinetics in newborn calves; settings: unpublished data
TgCDPK1 = settings: read-out: TgCDPK1 enzyme IC50; ref Johnson et al., 2012; cited from earlier work
[5] = bovine, in vivo
recombinant TgCDPK1 = molecular target: T1, recombinant TgCDPK1 (Toxoplasma gondii, UniProt Q9BJF5); test: Recombinant TgCDPK1 thermal shift assay; assay type: binding; settings: 20 µM BKI, 5% DMSO; change in Tm vs DMSO control
T1 sequence (Q9BJF5 1-507): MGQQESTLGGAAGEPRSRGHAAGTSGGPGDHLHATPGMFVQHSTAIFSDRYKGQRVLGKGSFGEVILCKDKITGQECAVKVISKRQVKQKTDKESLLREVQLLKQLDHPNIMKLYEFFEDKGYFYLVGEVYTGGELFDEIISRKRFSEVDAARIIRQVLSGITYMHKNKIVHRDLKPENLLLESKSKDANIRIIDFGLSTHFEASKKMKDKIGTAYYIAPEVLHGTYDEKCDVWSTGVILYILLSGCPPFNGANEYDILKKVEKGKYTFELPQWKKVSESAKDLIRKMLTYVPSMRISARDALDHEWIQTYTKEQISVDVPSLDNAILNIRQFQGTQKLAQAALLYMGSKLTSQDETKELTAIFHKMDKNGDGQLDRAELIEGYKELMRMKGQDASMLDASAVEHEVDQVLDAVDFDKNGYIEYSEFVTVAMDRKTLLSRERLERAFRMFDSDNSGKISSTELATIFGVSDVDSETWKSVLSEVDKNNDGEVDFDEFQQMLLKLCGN

recombinant SnCDPK1 [6] = test: Recombinant SnCDPK1 thermal shift assay; assay type: binding, Sarcocystis neurona; settings: 20 µM BKI, 5% DMSO; change in Tm vs DMSO control

Compound	hERG inhibition (hERG; ref Ojo et al., 2014a)	EC50 ([1]; Sarcocystis neurona, in Bos taurus, 96 h, read-out: S. neurona cell growth EC50) [nM]	Effect of time of addition on growth inhibition ([1]; added at parasite inoculation (0 h) versus 2 h p.i., 4 days)	S. neurona cell CDPK1 Thermal Stability (°C) [2] [°C]	IC50 (recombinant SnCDPK1 [3]) [nM]	Oral pharmacokinetics [4]	IC50 (TgCDPK1) [nM]	hERG inhibition (hERG; ref Vidadala et al., 2016)	Oral pharmacokinetics [5]	Recombinant TgCDPK1 Thermal Shift (°C) at 20 µM (recombinant TgCDPK1) [°C]	Recombinant SnCDPK1 Thermal Shift (°C) at 20 µM (recombinant SnCDPK1 [6]) [°C]
CCOc1ccc2cc(-c3nn(CC4CCN(C)CC4)c4ncnc(N)c34)ccc2c1 [compound 1294]	has recently been shown to have hERG inhibition	68	more effective if added at the time of infection rather than 2 h later	2.7	< 10	outstanding oral pharmacokinetics	[…]				
CCOc1ccc2cc(-c3nn(C(C)(C)C)c(N)c3C(N)=O)cnc2c1 [compound 1517]				8.0	< 10			lack of hERG inhibition	outstanding oral pharmacokinetics	10.5	9.6
